Laboratory results: patent US7608640B2, “Glycine betaine and its use” (priority 2001, dated 2009)
Several values for one entry are separate records, joined by “and”; a condition that tells them apart may be missing. Identical values can stand only once. Each block holds one compound with its values, some of them ahead of it.

What was measured:
[1] = tested on: heparin-induced bleeding in rat; assay: Tail cut bleeding test in heparinized rat; assay type: in vivo; conditions: for IHT (hemorrhage time), Mean / IHT (hemorrhage time), individual rats: Example 35, betaine 10 mg/kg and/or heparin 5 mg/kg s.c. 1 hour prior to testing
Experimental: This example determined the effect of betaine on hemorrhage time in a heparinized rat. Forty male Wistar rats were purchased from Charles River, France and were acclimated for one week prior to testing. Each animal was weighed prior to testing (weights ranged from 225 to 275 g, mean weight=245 g) and the group of 40 rats was further divided into 4 groups of 10 rats each. One group acted as a control group and each rat in this group received a subcutaneous injection of saline 1 hour prior to testing. The second group received a 10 mg/kg subcutaneous injection of betaine 1 hour prior to testing. The third group received a 5 mg/kg subcutaneous injection of heparin 1 hour prior to testing and the last group received a subcutaneous injection consisting of 5 mg/kg heparin plus 10 mg/kg betaine 1 hour prior to testing. The rats were anesthetized by intramuscular injection of Nesdonal (200 mg/kg). The products were then injected subcutaneously in the abdomen one hour before the tail cut induced bleeding test. For the group receiving the combined heparin/betaine (group 4) injections, the heparin and betaine were injected using different syringes at different sites of administration (left and right sides of the abdomen) in order to avoid any direct reactions between the two substances.
The tail of the anaesthetized rat was dipped for 5 minutes in a water bath at 37° C. in order to induce a dilation of the peripheral vessels. The tail was then removed from the water bath and sectioned at 10-15 mm from the extremity. The chronometer was then started. The IHT is defined as the time, in seconds, between the tail section and the end of the hemorrhage or bleeding. The end of hemorrhage is defined as the moment when the last drop of blood is collected from the tail and when no other drop is observed during 180 seconds. The amount of blood was estimated by visual inspection. […] Betaine has no significant effect on bleeding time and combined use of betaine with heparin almost restored the bleeding time to normal, thereby indicating an antidote-like activity of betaine against heparin.
This example investigated the effect of delayed betaine administration on active heparin-induced bleeding (antidote type administration) in a rat. Twelve male Wistar rats were purchased from Charles River, France and were acclimated for one week prior to testing. Each rat was weighed prior to testing (weights ranged from 245-280 g with a mean of 260 g) and the group of twelve was divided into 3 subgroups. Three rats were in the control group which received two saline injections, one at T0, one at T0+45 minutes. Three rats were in the […] group which received one injection of heparin (5 mg/kg) at T0. Six rats were in the antidote group which received a heparin injection (5 mg/kg) at T0, and a betaine injection (10 mg/kg) at T0+45 minutes. […] However, at the end of the bleeding experiments, blood was sampled by intracardiac puncture on Na-citrate (3.8%, 1:10) and plasmas of the collected blood samples were kept at −20° C. for future biological assays. Chemical products were also identical.
This example investigated the effect of delayed betaine administration in an antidote type administration inhibited the bleeding time and volume of blood loss induced by heparin treatment in a rat. Twenty male Wistar rats were purchased from Charles River, France and were acclimated for one week prior to the tests. Each rat was weighed prior to testing (weights ranged from 240-340 g with a mean weight of 275 g) and divided into 2 groups of 10 animals each. One group received an injection of heparin (5 mg/kg) at T0. The second group received a heparin injection (5 mg/kg) at T0, and a betaine injection (10 mg/kg) at T0+30 minutes. Both groups were subjected to a bleeding test at T0+60 minutes. The testing was performed using the previously described methodology with slight modifications. The tails were sectioned at 5-8 mm from the extremity. […]

blood cells = assay: Blood cell counts; assay type: in vivo, rat; conditions: rat; glycine betaine 5 mg/kg, acetylsalicylic acid 100 mg/kg, heparin 2 mg/kg
bleeding time in rats = assay: Induced haemorrhagic (bleeding) time, tail cut; assay type: in vivo, rat; conditions: for B.T.C. (bleeding time caused): 5 mg/ml/kg; for Provoked haemorrhage: after 24 hours; for Induced haemorrhage: oral 50 mg/kg; for Bleeding time: rat, glycine betaine 5 mg/kg, acetylsalicylic acid 100 mg/kg, heparin 2 mg/kg
Experimental: Induced Haemorrahgic Time IHT
(E. Dejana. Bleeding time in rats. Thrombosis. Rech. 1982) Blood samples are made before the test. The tail of anaesthetised rat, is dipped for 5 minutes in a water bath at 37° C. so as to provoke a dilatation of the peripheral vessels which are removed and cut at the end, the chronometer being started. The IHT is defined as being the time period comprised between the cutting of end tail and the end of the haemorrhage or bleeding. The end of haemorrhage is defined as the time where the last drop of blood is removed from the tail and no other drop is seen for 180 seconds. […]

[2] = tested on: coagulation (Fibrinogen, APTT, Prothrombin Time, Anti-Xa activity); assay: Plasma fibrinogen, APTT, prothrombin time and anti-Xa in heparinized rat; assay type: in vivo; conditions: Example 37
From the text: This example investigated the effect of delayed betaine administration in an antidote type administration inhibited the bleeding time and volume of blood loss induced by heparin treatment in a rat. Twenty male Wistar rats were purchased from Charles River, France and were acclimated for one week prior to the tests. Each rat was weighed prior to testing (weights ranged from 240-340 g with a mean weight of 275 g) and divided into 2 groups of 10 animals each. One group received an injection of heparin (5 mg/kg) at T0. The second group received a heparin injection (5 mg/kg) at T0, and a betaine injection (10 mg/kg) at T0+30 minutes. Both groups were subjected to a bleeding test at T0+60 minutes. The testing was performed using the previously described methodology with slight modifications. The tails were sectioned at 5-8 mm from the extremity. After transection, the proximal end of the tail was placed in a tube and blood was permitted to drip freely into a reservoir of 3.8% citrate solution (1 ml) until bleeding stopped. Blood loss volumes were then determined using a 1000 μl pipette. At the end of the experiments, before euthanasia, blood was sampled by intracardiac puncture on Na-citrate (3.8%, 1:9) and centrifuged at 4000 rpm/min for 20 minutes in order to obtain Poor Platelet Plasma (PPP). Fibrinogen, APTT, Prothrombin Time (Quick) and Anti-Xa activity were determined using an Automatic Coagulation Laboratory ACL 200 (Instrumentation Laboratory, France). […] Betaine efficiency to reduce bleeding times was confirmed. The effect on the haemorrhage was also confirmed since there was a very significant reduction of the blood loss volumes when compared to the heparin group. The delayed administration of betaine after heparin treatment, designed to mimic an antidote mode of administration, almost restored the bleeding times and the volumes of blood loss in the 10 betaine-treated animals to normal.

[3] = betaine 10 mg/kg 30 minutes after heparin 5 mg/kg
[4] = Example 36, heparin 5 mg/kg at T0, betaine 10 mg/kg at T0+45 minutes, bleeding test at T0+75 minutes
[5] = Example 37, heparin 5 mg/kg at T0, betaine 10 mg/kg at T0+30 minutes, test at T0+60 minutes
[6] = heparin 5 mg/kg at T0, betaine 10 mg/kg at T0+30 minutes

- Number of platelets (blood cells): 804.67 ± 20.03 10^9
- Number of red corpuscles (blood cells): 6.19 ± 0.25 10^12
- Number of white corpuscles (blood cells): 4.43 ± 0.32 10^9
- B.T.C. (bleeding time caused) (bleeding time in rats; Group I: injected 1 hour before the experiment): 105 ± 26.2 s
- B.T.C. (bleeding time caused) (bleeding time in rats; Group II: injected 2 hours before the experiment): 145 ± 15.52 s
- B.T.C. (bleeding time caused) (bleeding time in rats; Group III: injected 3 hours before the experiment): 115.5 ± 14.2 s
- B.T.C. (bleeding time caused) (bleeding time in rats; Group IV: injected 4 hours before the experiment): 120 ± 10.13 s
- Provoked Haemorrhage time (bleeding time in rats; 10 mg/kg subcutaneous): 105 s
- Provoked haemorrhage (bleeding time in rats; 10 mg/kg subcutaneous): 114 ± 12.76 s
- Provoked haemorrhage (bleeding time in rats; 20 mg/kg subcutaneous): 110 ± 13.22 s
- Provoked Haemorrhage time (bleeding time in rats; 30 mg/kg subcutaneous): 112 s
- Provoked Haemorrhage time (bleeding time in rats; 50 mg/kg subcutaneous): 115 s
- Induced haemorrhage (bleeding time in rats; 1 hour): 120 ± 5 s
- Induced haemorrhage (bleeding time in rats; 6 hours): 111 ± 3.6 s
- Induced haemorrhage (bleeding time in rats; 24 hours): 113.33 ± 18.92 s
- Induced haemorrhage (bleeding time in rats; 48 hours): 109 ± 8.54 s
- Bleeding time (bleeding time in rats): 95 ± 5 s
Compound: C[N+](C)(C)CC(=O)O [Glycine betaine]
- IHT (hemorrhage time), Mean [1]: 169.9 s
- IHT (hemorrhage time), individual rats [1]: 166 s and 180 s and 162 s and 173 s and 194 s and 203 s and 159 s and 142 s and 123 s and 197 s
- Volume of blood loss by visual inspection ([1]; Example 36, antidote group versus heparin group): significantly reduced
- APTT prolongation despite betaine administration [2, 3]: up to 6 ×
- Animals with normalized Prothrombin times [2, 3]: 8 out of 10
- Fibrinogen level change versus heparin [2, 3]: −10%
- Fibrinogen level change versus the control [2, 3]: −23%
- Reduction of Anti-Xa activity, antidote group compared to the heparin group [2, 3]: 74%

- Number of platelets (blood cells): 777.33 ± 6.43 10^9
- Number of red corpuscles (blood cells): 6.20 ± 0.20 10^12
- Number of white corpuscles (blood cells): 5.80 ± 0.10 10^9
- Bleeding time (bleeding time in rats): 313.33 ± 20 s
Compound: Heparin
- IHT (hemorrhage time), Mean [1]: 690.9 s
- IHT (hemorrhage time), individual rats [1]: 679 s and 767 s and 680 s and 734 s and 702 s and 663 s and 735 s and 567 s
- Bleeding Time, individual rats [1, 4]: 658 s and 597 s and 533 s
- Bleeding time, Mean [1, 4]: 596 s
- Bleeding Time, individual rats [1, 5]: 400 s and 345 s and 405 s and 370 s and 290 s and 265 s and 350 s and 300 s and 315 s and 275 s
- Bleeding time, Mean [1, 5]: 331.5 s
- Volume (blood loss), Mean [1, 5]: 1294 µL
- Volume (blood loss), individual rats [1, 5]: 1650 μl and 1300 μl (2×) and 1800 μl and 1380 μl and 1200 μl and 940 μl and 1140 μl and 1130 μl and 1100 μl
- APTT, Mean [2, 6]: >180 s
- APTT, individual rats [2, 6]: >180 s
- Anti-Xa, Mean [2, 6]: 1.37 IU/ml
- Anti-Xa, individual rats [2, 6]: 1.35 IU/ml (2×) and 1.38 IU/ml (2×) and 1.37 IU/ml (2×) and 1.34 IU/ml and 1.41 IU/ml and 1.39 IU/ml (2×)
- Fibrinogen, Mean [2, 6]: 1.82 g/L
- Fibrinogen, individual rats [2, 6]: 2.15 g/L and 1.77 g/L and 2.1 g/L and 1.53 g/L and 1.62 g/L and 2.0 g/L and 1.55 g/L and 1.67 g/L and 1.57 g/L and 2.2 g/L
- Quick (Prothrombin Time), Mean [2, 6]: 61.07 s
- Quick (Prothrombin Time), individual rats [2, 6]: 52.3 s and 57.4 s and 55.3 s and 66.2 s and 66.0 s and 59.6 s and 64.6 s and 67.2 s and 62.2 s and 59.9 s
